For 14 compounds, TGI and GI50 results are on record in PubChem BioAssay (NCI).

Test in all cases: NCI anticancer screen, dose series, 48 h
Assay [1] deals with COLO 205 colon.
Assay [2] has as its system K-562 leukemia.
Assay [3] has as its system OVCAR-3 ovarian.
In assay [4] the test system is OVCAR-5 ovarian.
The test system of assay [5] is RPMI-8226 leukemia.
In assay [6] the test system is SF-295 CNS.
Assay [7] deals with SK-MEL-5 melanoma.
For assay [8], the system named is SNB-75 CNS.
The test system of assay [9] is SR leukemia.

Molecules are shown by their SMILES.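 Five concentrations, 48 hours, 96-well plates. GI50: concentration for 50% inhibition of growth. TGI is the concentration that stops growth completely.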

Take `c1ccc2c(c1)cc1ccc3cccc4ccc2c1c34`: the TGI in assay [1], in [2], in assay [3], in assay [4], in [5] and in assay [6] was more than 100 µM throughout. The TGI in assay [7], in assay [8] and in assay [9] was more than 100 µM each time. Also, the GI50 in assay [4] is more than 100 µM.
For `Cc1cccc2c1CC(Cc1ccccc1C(=O)O)C2=O` (centres undefined), the TGI in [1], in assay [2], in assay [3], in assay [4], in assay [5] and in assay [6] was more than 100 µM throughout. Besides, the TGI in assay [7], in assay [8] and in [9] was more than 100 µM in each case.
With `CSc1ncc2c(n1)-c1ccccc1OC2NC1CC1` (centres undefined), the TGI was more than 100 µM in assay [1]; more than 100 µM in assay [2]; more than 100 µM in assay [3]; more than 100 µM in assay [4]; 96.9 µM in [5]; more than 100 µM in assay [6]. For the same compound, the TGI in [7], in [8] and in assay [9] was more than 100 µM in each case.
For `CCN(CC)CCCCNc1c2ccc(Cl)cc2nc2ccc(OC)cc12`, the GI50 in assay [1] is 0.24 µM; in assay [2], 0.578 µM; in assay [3], 0.501 µM; in assay [4], 0.465 µM; in assay [5], 0.566 µM; in assay [6] it was 0.717 µM. Also, the GI50 in assay [7] was 1.46 µM; in [8], 1.09 µM; in assay [9] it was 0.207 µM. Further, the TGI in [1] was 1.32 µM; in [2], 3.56 µM; in assay [3] it was 2.99 µM; in assay [4], 3.33 µM; in [5], 4.2 µM; in [6] it was 2.47 µM. The TGI in assay [7] was determined as 2.9 µM; in assay [8] it was 2.39 µM; in [9], 1.53 µM.
As to `COC1(CC[C@H](C)COC2OC(CO)C(O)C(O)C2O)O[C@H]2C[C@H]3[C@@H]4CC=C5C[C@@H](OC6OC(CO)C(OC7OC(C)C(O)C(O)C7O)C(O)C6OC6OC(C)C(O)C(O)C6O)CC[C@]5(C)[C@H]4CC[C@]3(C)[C@H]2[C@@H]1C` (some centres undefined), the TGI is 64 µM in assay [1]; more than 100 µM in assay [2]; 17.6 µM in assay [3]; more than 35.5 µM in [4]; 5.93 µM in assay [5]; 13.6 µM in [6]. Besides, the values for the TGI in assay [7], in assay [8] and in [9] were more than 28.6 µM, 3.8 µM and more than 100 µM, respectively.
On to `CCC1([N+](=O)[O-])CN(N=O)C1`, for which the TGI in assay [1], in assay [2], in [3], in assay [4], in assay [5] and in assay [6] was more than 100 µM in each case. Moreover, the TGI in [7], in assay [8] and in assay [9] was more than 100 µM in each case.
On to `O=c1c2ccc(Cl)cc2oc2c(CNc3ccc(S(=O)(=O)Nc4ncccn4)cc3)cccc12`, for which the TGI in assay [1], in assay [2], in [3], in [4], in assay [5] and in assay [6] was more than 100 µM each time. In addition, the TGI in assay [7], in [8] and in assay [9] was more than 100 µM in each case.
On to `CCOC(=O)[C@@H](Cc1ccc(CCl)cc1)NC(C)=O`, for which the TGI was 43.9 µM in assay [1]; more than 100 µM in assay [2]; more than 100 µM in assay [3]; 44.2 µM in assay [4]; 88.4 µM in assay [5]; more than 100 µM in [6]. Moreover, the results for the TGI in assay [7], in assay [8] and in [9] were 31.5 µM, 59 µM and more than 100 µM, respectively.
As to `COc1cc2c(cc1OCc1ccccc1)NC(=O)[C@@H]1CCCN1C2=O`, the TGI in assay [1], in assay [2], in assay [3], in [4], in assay [5] and in assay [6] was more than 100 µM each time. Further, the TGI in assay [7], in assay [8] and in [9] was more than 100 µM each time.
With `CCOC(=O)/C=C/CCC(C)(C)COC(C)=O`, the TGI in assay [1], in assay [2], in assay [3], in assay [4], in [5] and in assay [6] was more than 10 µM throughout. For the same compound, the TGI in assay [7], in assay [8] and in assay [9] was more than 10 µM in each case.
Regarding `O=c1c2cc([N+](=O)[O-])ccc2oc2nc3n(c(=O)c12)CCCS3`, the TGI in assay [1], in [2], in assay [3], in assay [4], in assay [5] and in assay [6] was more than 100 µM each time. Further, the TGI in assay [7], in [8] and in assay [9] was more than 100 µM throughout.
Regarding `CCc1nc2c(c(N(C)C)c1C(=O)OC)CCc1ccccc1-2`, the TGI in assay [1] is 41.8 µM; in [2], 77.3 µM; in assay [3], 35.4 µM; in assay [4] it was more than 100 µM; in assay [5], 46.6 µM; in [6], 50.9 µM. For the same compound, the TGI is 32.9 µM in assay [7], more than 100 µM in [8] and 32.9 µM in assay [9].
`C=C1C[C@@H]2O[C@H]3[C@H]4[C@@H](C[C@@H](C)[C@@H](OC(C)=O)[C@H]42)[C@@H](C)CO[C@@]3(C)[C@H](OC(=O)CCCCCCC)CC1=O`: the TGI in assay [1] came to 27.3 µM; in assay [3], 32 µM; in [4], 21.1 µM; in assay [5] it was 13.1 µM; in assay [6], 33.6 µM; in assay [7], 28.4 µM. The values for the TGI in assay [8] and in assay [9] were 24.8 µM and 37.2 µM, respectively.
With `O=C(c1ccc([N+](=O)[O-])cc1)N1CCCC1`, the TGI in assay [2], in assay [3], in assay [4], in [5], in assay [6] and in assay [7] was more than 100 µM in each case. The TGI in assay [8] and in assay [9] was more than 100 µM throughout.
